From US10576096B2, “Tumor-selective combination therapy” (priority 2013, dated 2020)
≈ marks a conversion by molar mass, not a printed value.

Columns and labels:
[1] = Aqueous solubility in PBS pH 7.4 by LC-MS; format: physicochemical; conditions: pH 7.4 PBS, 30 min sonication, filtered
Description: The aqueous solubility of DNQ at pH 7.4 in phosphate buffered saline (PBS) was measured by LC-MS. DNQ was sonicated for 30 minutes in PBS then undissolved solid was removed by filtration through a 0.45 μm syringe filter and the filtrate was analyzed by LC-MS (λ=275 nm, ESI-TOF in negative mode). The optimal sonication time was determined by sonicating DNQ for 1, 5, 10, and 30 minutes. While the concentration of DNQ in solution increased substantially between 1, 5, and 10 minutes, there was only a minor difference between 10 and 30 minutes. During the 30 minute sonication the water bath warmed to 45° C. (samples were cooled to room temperature before filtration). A calibration curve was generated from 1-100 μM by dissolving DNQ in methanol to a concentration of 500 μM and making dilutions of this stock in 80:20 water:methanol. The calibration curve (measure by UV absorbance) was linear over this range; 1 μM was approximately the limit of detection. […] The solution was very pale yellow.

[2] = Formulation of DNQ compounds in HPβCD (solubility, solution stability); format: physicochemical
Text: This same neutral solution of DNQ in HPβCD cannot be made directly (i.e. without pH adjustment). […] The only proton on DNQ that might reasonably be deprotonated in aqueous base is the N—H. Although the acidity of the N—H bond of DNQ has not been measured, it has been measured for a derivative of DNQ and found to have a pKa of 8.0.
The protocol for formulating DNQ compounds in HPβCD is as follows: the DNQ compound is slurried in a 20% solution of HPβCD in pH 7.4 PBS and the pH is then increased by the addition of 10 M NaOH to induce dissolution of the DNQ compound. The pH is returned to pH 7.5-8.0 by the careful addition of 1 M HCl. A 3.3 mM solution of the DNQ compound can be made by this method which is stable at least 24 hours. This represents a 30-fold increase in solubility of DNQ over PBS alone. We initially chose a 20% HPβCD solution.

[3] = tested on: NOD/SCID mice injected with 3LL-Luc cells; conditions: mouse, in vivo, iv
[4] = tested on: NOD/SCID mice injected with 3LL-Luc cells; test: DNQ derivatives pilot study of maximum tolerated dose (MTD); conditions: 7.5 mg/kg, 3 NOD/SCID mice

## Cc1cc(=O)[nH]c2c1C(=O)c1c(C)cc(=O)n(C)c1C2=O [DNQ, Deoxynyboquinone]
[1]
  solubility in PBS: 115 µM (≈ 32.7 µg/mL)
[2]; 3.3 mM in 20% HPβCD
  stability of HPβCD solution: at least 24 hours
[2]; 20% HPβCD
  increase in solubility over PBS alone: 30 fold
[2]; 20% HPβCD in pH 7.4 PBS, pH raised with NaOH then returned to 7.5-8.0
  concentration of solution in HPβCD: 3300 µM
[2]; 40% HPβCD, extrapolated from linear increase with HPβCD
  concentration of solution in HPβCD: 6600 µM
[3]
  MTD: 6
[4]
  Dead mice (5 IV.): 2
